Assay results taken from US4195183A, “ω-Nor-aromatic-13,14-dehydro-prostaglandins and process for their preparation” (Farmitalia Certo Erba S.p.A., priority 1976, dated 1980).

Assays:
[1] = tested on: guinea pig ileum; assay: guinea pig ileum test (in vitro); details: relative to PGF2α (conventional value 1), limits in brackets
Protocol: (§1) In the Table the conventional value of 1 was given to the activity of PGF2α in both tests.
*In a 10 ml thermostatic bath held at 35° C., ilea of male guinea
pigs, under 0.5 g traction, were subjected to carbondioxide in a Tyrode
solution; the preparation was left for 30 minutes to stabilize before the
compounds were tested. The response was recorded using a isotonic frontal
lever, long enough to amplify the response 4.5 times.

[2] = tested on: oestrogenized rat uteri; assay: rat uterus test (in vitro); details: relative to PGF2α (conventional value 1), limits in brackets
Protocol: as §1
**In a 10 ml thermostatic bath held at 29° C., oestrogenized rat
uteri under 0.5 g traction were subjected to carbondioxide in a Dejalon
saline solution. The prepration was left to stabilize for 30 minutes
before the compounds were tested. Response was measured using a isotonic
frontal lever, long enough to amplify the response 4.5 times.

[3] = tested on: pregnant rat; assay: luteolytic activity in the pregnant rat; format: in vivo; details: pregnant rat at the 9th-10th day of pregnancy; relative to PGF2α (conventional value 1)
Text: The action selectivity of the compounds of the invention on the miometrium and on the reproductive apparatus is also proven by the remarkable increase of the luteolytic activity in the pregnant rat at the 9th-10th day of pregnancy. In fact, if the conventional value 1 is given to the luteolytic activity of PGF2α, the value of 100 at least is to be given to the luteolytic activity of 13,14-dehydro-17-phenyl-20,19,18-trinor-PGF2α, and the value of 200 to the luteolytic activity of 13,14-dehydro-16-p-fluorophenoxy-20,19,18,17-tetranor-PGF2α.

[4] = molecular target: T1, 15-hydroxy-prostaglandin-dehydrogenase drawn from human placenta (Homo sapiens, UniProt P15428); assay: inhibition of 15-hydroxy-prostaglandin-dehydrogenase, in vitro; format: biochemical; details: enzyme from human placenta; inhibition partially competitive with respect to PGF2α
T1 construct: drawn from human placenta; from tissue; host or cells: human placenta
T1 sequence (P15428 1-266): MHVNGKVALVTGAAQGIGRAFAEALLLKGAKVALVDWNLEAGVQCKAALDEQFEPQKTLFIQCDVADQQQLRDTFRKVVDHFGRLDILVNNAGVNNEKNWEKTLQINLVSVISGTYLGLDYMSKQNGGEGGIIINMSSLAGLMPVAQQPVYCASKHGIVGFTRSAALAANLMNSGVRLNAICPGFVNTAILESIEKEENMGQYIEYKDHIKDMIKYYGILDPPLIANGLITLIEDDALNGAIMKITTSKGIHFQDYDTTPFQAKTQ
Text: The compounds of formula (I) furthermore inhibit the use of natural prostaglandins as substrate by the same enzyme.

[5] = tested on: mares, cows, heifers and sowes; assay: synchronizing the estrum / haematic progesterone levels in farm animals; format: in vivo; details: for haematic levels of progesterone: after administration of 0.5-3 ml of the 0.5 mg/ml solution; for ability of synchronizing the estrum: solution in aqueous isotonic buffered (pH 7.5) medium, 0.5 mg/ml, mares, cows, heifers and sowes

Row | Ki [4] [µM] | Structure (SMILES) | Guinea Pig Ileum activity, PGF2α = 1 [1] | Rat Uterus activity, PGF2α = 1 [2] | luteolytic activity, PGF2α = 1 [3] | haematic levels of progesterone [5] | ability of synchronizing the estrum [5]
1 |  | O=C(O)CCC/C=C\CC1C(O)CC(O)C1C#CC(O)COc1cccc(C(F)(F)F)c1 (stereo not drawn) [5c-9α,11α,15S-trihydroxy-20,19,18,17-tetranor-16-m-trifluoromethylphenoxy-prost-5-en-13-ynoic acid] | 0.50 (0.05-5) | 3.86 (2.96-5.03) |  |  | 
2 |  | O=C(O)CCC/C=C\CC1C(O)CC(O)C1C#CC(O)COc1ccc(F)cc1 (stereo not drawn) [5c-9α,11α,15S-trihydroxy-20,19,18,17-tetranor-16-p-fluorophenoxy-prost-5-en-13-ynoic acid] | 0.50 (0.05-5) | 1.91 (1.34-2.73) | 200 |  | 
3 | 130 | O=C(O)CCC/C=C\C[C@@H]1[C@@H](C#C[C@@H](O)CCc2ccccc2)[C@H](O)C[C@@H]1O [5c-9α,11α,15S-trihydroxy-20,19,18-trinor-17-phenyl-prost-5-en-13-ynoic acid] | 0.6 | 22.74 | ≥ 100 |  | 
4 |  | CO[C@H](C#C[C@@H]1[C@@H](C/C=C\CCCC(=O)O)[C@@H](O)C[C@H]1O)CCc1ccccc1 [5c-9α,11α-dihydroxy-15S-methoxy-20,19,18-trinor-17-phenyl-prost-5-en-13-ynoic acid] | 0.05 | 4.4 |  |  | 
5 |  | O=C([O-])CCC/C=C\CC1C(O)CC(O)C1C#CC(O)COc1ccc(F)cc1.[Na+] (stereo not drawn) [13,14-dehydro-16-p-fluorophenoxy-20,19,18,17-tetranor-PGF2α] |  |  |  | pronounced downfall | very good results
6 |  | O=C([O-])CCC/C=C\CC1C(O)CC(O)C1C#CC(O)CCc1ccccc1.[Na+] (stereo not drawn) [13,14-dehydro-17-phenyl-20,19,18-trinor-PGF2α] |  |  |  | pronounced downfall | very good results
7 |  | CCCCC[C@H](O)C#C[C@@H]1[C@@H](C/C=C\CCCC(=O)O)[C@@H](O)C[C@H]1O [13,14-dehydro-PGF2α, reference compound] | 0.6 | 1.09 |  |  | 
8 |  | O=C(O)CCC/C=C\C[C@@H]1[C@@H](/C=C/[C@@H](O)CCc2ccccc2)[C@H](O)C[C@@H]1O [17-phenyl-20,19,18-trinor-PGF2α, 5c,13t-9α,11α,15S-trihydroxy-20,19,18-trinor-17-phenyl-prosta-5,13-dienoic acid, reference compound] | 2.34 | 1.54 |  |  | 
9 |  | CCCCC[C@H](O)/C=C/[C@@H]1[C@@H](C/C=C\CCCC(=O)O)[C@@H](O)C[C@H]1O [PGF2α, reference compound] | 1 | 1 | 1 |  | 
